# Results published in ChEMBL document CHEMBL3885861, “Open TG-GATES”.
# Species: Rattus norvegicus
# Experiment: Open TG-GATES - Regimen: Single
# Type: toxicity, organism-based, Sprague-Dawley
# Parameters: regimen Single, gender Male, age 6 weeks
# Conditions: in vivo, po, 30 mg/kg, route gavage, dose level Middle; for APTT / Bas / Eos / Fbg / Hb / Ht / Lym / MCH / MCHC / MCV / Mono / Neu / PT / Plat / RBC / Ret / WBC: tissue Blood; for KIDNEY_L / KIDNEY_R / KIDNEY_TOTAL: tissue Kidney; for LIVER: tissue Liver; for A/G / ALP / ALT / AST / BUN / CRE / Ca / Cl / DBIL / GLC / IP / K / LDH / Na / PL / RALB / TBIL / TC / TG / TP / gamma-GTP: tissue Plasma
compound,measurement,setting,value
CC1=C(/C=C/C(C)=C/C=C/C(C)=C/CO)C(C)(C)CCC1 [RETINOL],TERMINAL_BW,3 h,204 g
same,APTT,3 h,21.5 s
same,Bas,3 h,0%
same,Eos,3 h,1.2%
same,Fbg,3 h,295.2 mg/dL
same,Hb,3 h,13.2 g/dL
same,Ht,3 h,38.6%
same,Lym,3 h,77.6%
same,MCH,3 h,21.6 pg
same,MCHC,3 h,34.1%
same,MCV,3 h,63.4 fL
same,Mono,3 h,3%
same,Neu,3 h,17.6%
same,PT,3 h,15.9 s
same,Plat,3 h,124.8 x10_4/uL
same,RBC,3 h,609.8 x10_4/ul
same,Ret,3 h,8.3%
same,WBC,3 h,84.2 x10_2/uL
same,KIDNEY_L,3 h,0.9 g
same,KIDNEY_R,3 h,0.9 g
same,KIDNEY_TOTAL,3 h,1.8 g
same,LIVER,3 h,9.3 g
same,A/G,3 h,1.3
same,ALP,3 h,1939.2 IU/L
same,ALT,3 h,48.2 IU/L
same,AST,3 h,80 IU/L
same,BUN,3 h,13.4 mg/dL
same,CRE,3 h,0.1 mg/dL
same,Ca,3 h,11.3 mg/dL
same,Cl,3 h,106.2 meq/L
same,DBIL,3 h,0 mg/dL
same,GLC,3 h,176.4 mg/dL
same,IP,3 h,9 mg/dL
same,K,3 h,4.2 meq/L
same,LDH,3 h,231 IU/L
same,Na,3 h,141.2 meq/L
same,PL,3 h,165.4 mg/dL
same,RALB,3 h,3.1 g/dL
same,TBIL,3 h,0.004 mg/dL
same,TC,3 h,83.2 mg/dL
same,TG,3 h,153.8 mg/dL
same,TP,3 h,5.7 g/dL
same,gamma-GTP,3 h,3.6 IU/L
same,TERMINAL_BW,6 h,195.5 g
same,APTT,6 h,21.5 s
same,Bas,6 h,0%
same,Eos,6 h,0.8%
same,Fbg,6 h,302.4 mg/dL
same,Hb,6 h,13.4 g/dL
same,Ht,6 h,38.7%
same,Lym,6 h,77.8%
same,MCH,6 h,21.1 pg
same,MCHC,6 h,34.5%
same,MCV,6 h,61.2 fL
same,Mono,6 h,2.8%
same,Neu,6 h,17.8%
same,PT,6 h,15.5 s
same,Plat,6 h,119.2 x10_4/uL
same,RBC,6 h,633.8 x10_4/ul
same,Ret,6 h,7.3%
same,WBC,6 h,101.4 x10_2/uL
same,KIDNEY_L,6 h,0.9 g
same,KIDNEY_R,6 h,0.9 g
same,KIDNEY_TOTAL,6 h,1.8 g
same,LIVER,6 h,8.2 g
same,A/G,6 h,1.2
same,ALP,6 h,1586.8 IU/L
same,ALT,6 h,36.2 IU/L
same,AST,6 h,72.2 IU/L
same,BUN,6 h,8.8 mg/dL
same,CRE,6 h,0.1 mg/dL
same,Ca,6 h,10.8 mg/dL
same,Cl,6 h,107.6 meq/L
same,DBIL,6 h,0.004 mg/dL
same,GLC,6 h,176.8 mg/dL
same,IP,6 h,9.8 mg/dL
same,K,6 h,4.4 meq/L
same,LDH,6 h,224.8 IU/L
same,Na,6 h,142 meq/L
same,PL,6 h,146.2 mg/dL
same,RALB,6 h,3.1 g/dL
same,TBIL,6 h,0.01 mg/dL
same,TC,6 h,74.6 mg/dL
same,TG,6 h,119.6 mg/dL
same,TP,6 h,5.6 g/dL
same,gamma-GTP,6 h,1 IU/L
same,TERMINAL_BW,9 h,195.6 g
same,APTT,9 h,21.7 s
same,Bas,9 h,0%
same,Eos,9 h,1%
same,Fbg,9 h,317 mg/dL
same,Hb,9 h,13.3 g/dL
same,Ht,9 h,38.5%
same,Lym,9 h,75.2%
same,MCH,9 h,21.3 pg
same,MCHC,9 h,34.5%
same,MCV,9 h,61.8 fL
same,Mono,9 h,2.8%
same,Neu,9 h,21%
same,PT,9 h,15.5 s
same,Plat,9 h,115.9 x10_4/uL
same,RBC,9 h,623.4 x10_4/ul
same,Ret,9 h,7.7%
same,WBC,9 h,94.3 x10_2/uL
same,KIDNEY_L,9 h,0.9 g
same,KIDNEY_R,9 h,0.9 g
same,KIDNEY_TOTAL,9 h,1.8 g
same,LIVER,9 h,8.3 g
same,A/G,9 h,1.3
same,ALP,9 h,1640.4 IU/L
same,ALT,9 h,33 IU/L
same,AST,9 h,67.4 IU/L
same,BUN,9 h,10 mg/dL
same,CRE,9 h,0.2 mg/dL
same,Ca,9 h,11 mg/dL
same,Cl,9 h,106 meq/L
same,DBIL,9 h,0.008 mg/dL
same,GLC,9 h,181 mg/dL
same,IP,9 h,11.1 mg/dL
same,K,9 h,4.2 meq/L
same,LDH,9 h,253.4 IU/L
same,Na,9 h,141.2 meq/L
same,PL,9 h,136 mg/dL
same,RALB,9 h,3.1 g/dL
same,TBIL,9 h,0.014 mg/dL
same,TC,9 h,72 mg/dL
same,TG,9 h,82.6 mg/dL
same,TP,9 h,5.5 g/dL
same,gamma-GTP,9 h,1 IU/L
same,TERMINAL_BW,24 h,208 g
same,APTT,24 h,21.8 s
same,Bas,24 h,0%
same,Eos,24 h,0.6%
same,Fbg,24 h,303.2 mg/dL
same,Hb,24 h,13.1 g/dL
same,Ht,24 h,38.6%
same,Lym,24 h,79.4%
same,MCH,24 h,21.5 pg
same,MCHC,24 h,34.1%
same,MCV,24 h,63.1 fL
same,Mono,24 h,3%
same,Neu,24 h,16.2%
same,PT,24 h,15.9 s
same,Plat,24 h,124 x10_4/uL
same,RBC,24 h,612.6 x10_4/ul
same,Ret,24 h,7.8%
same,WBC,24 h,76.3 x10_2/uL
same,KIDNEY_L,24 h,0.9 g
same,KIDNEY_R,24 h,0.9 g
same,KIDNEY_TOTAL,24 h,1.9 g
same,LIVER,24 h,10.1 g
same,A/G,24 h,1.4
same,ALP,24 h,1811.2 IU/L
same,ALT,24 h,42.6 IU/L
same,AST,24 h,75.8 IU/L
same,BUN,24 h,16.6 mg/dL
same,CRE,24 h,0.2 mg/dL
same,Ca,24 h,10.8 mg/dL
same,Cl,24 h,107.2 meq/L
same,DBIL,24 h,0.002 mg/dL
same,GLC,24 h,193 mg/dL
same,IP,24 h,7.2 mg/dL
same,K,24 h,4.2 meq/L
same,LDH,24 h,242.4 IU/L
same,Na,24 h,141.6 meq/L
same,PL,24 h,148.2 mg/dL
same,RALB,24 h,3.2 g/dL
same,TBIL,24 h,0.006 mg/dL
same,TC,24 h,74.2 mg/dL
same,TG,24 h,114 mg/dL
same,TP,24 h,5.6 g/dL
same,gamma-GTP,24 h,1.2 IU/L
